The target in test [1] is T1, amino-acid transporter AAP2 (Arabidopsis thaliana, UniProt Q38967).
T1 construct: expressed in transfected cells; host or cells: Saccharomyces cerevisiae mutant 22574d (also printed 22457d)
T1 sequence (Q38967 1-493): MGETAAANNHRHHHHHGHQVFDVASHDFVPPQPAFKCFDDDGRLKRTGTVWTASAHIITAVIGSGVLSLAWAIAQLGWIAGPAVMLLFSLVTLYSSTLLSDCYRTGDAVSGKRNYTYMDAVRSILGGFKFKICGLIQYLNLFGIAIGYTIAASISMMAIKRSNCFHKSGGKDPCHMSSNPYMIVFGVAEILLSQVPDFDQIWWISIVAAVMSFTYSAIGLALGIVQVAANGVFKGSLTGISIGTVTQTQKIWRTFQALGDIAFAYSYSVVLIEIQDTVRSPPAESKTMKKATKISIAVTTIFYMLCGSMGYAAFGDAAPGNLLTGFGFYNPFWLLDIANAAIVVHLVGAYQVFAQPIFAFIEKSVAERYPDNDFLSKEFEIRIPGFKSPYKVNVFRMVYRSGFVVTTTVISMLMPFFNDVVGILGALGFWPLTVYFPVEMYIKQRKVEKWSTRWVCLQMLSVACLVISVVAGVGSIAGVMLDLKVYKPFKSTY
The test is described as follows: Uptake of radiolabeled L-proline by yeast mutant 22457d-AAP2 expressing the plant amino-acid transporter. The format is cell-based. Conditions: L-[14C]-proline uptake, read-out: Activity relative to control [%]. How it is done:
Transporter investigations are carried out on the yeast mutant 22574d (Jauniaux & Grenson, Eur. J. Biochem. 190: 39-44, 1990), which harbors a mutation in the gene for amino-acid permease, and on the yeast mutant JT 16 (Tanaka and Fink, Gene 38: 205-214, 1985) which is incapable of histidine uptake, for identification of inhibitors of plant amino-acid transporters. These mutants are transformed with cDNA sequences which code for plant amino-acid transporters and lead to expression of functional transporters in the yeast cells. The cDNA sequences are cDNA sequences which code for the amino-acid transporters AAP1 and AAP2 from Arabidopsis thaliana (Frommer et al., 1993, Proc. Natl. Acad. Sci. USA 90: 5944-5948; Kwart et al., 1993, Plant J. 4:993-1002). For the measurements, cells of these mutants are cultured in minimal medium (NAAG+5 mmol/l proline) at 28° C. and harvested in the logarithmic phase (OD600 =0.6). The cells are spun down in a centrifuge at 4000 rpm and 4 degrees Celsius for 10 minutes and washed 2× with AUB buffer (modified AAB buffer, Ljungdahl et al.). The cell concentration is adjusted to an OD600 of 25 in AUB buffer.
100 μl portions of the cell suspension are mixed with 100 μl of a 1 mmol/l L-proline solution (18.5 kBq of L-[14C]-proline) and various concentrations of the appropriate substance to be investigated. After 20, 60, 120 and 180 seconds, a 50 μl aliquot is removed, diluted in 4 ml -of ice-cold AUB buffer and filtered through glass fever [sic] filter. In order to remove nonspecifically bound L-[14C]-proline, the cells are washed 2× with 4 ml of ice-cold water each time. The radioactivity retained on the glass filter is then measured in a liquid scintillation counter. The radioactivity reflects the amount of radiolabeled proline taken up by the cells. Uptake of radiolabeled proline without addition of a potential inhibitor is determined as one control. Cells of each of the mutants 22574d and JY 16 which have not been transformed with cDNA sequences coding for plant amino-acid transporters are used as further control. Results of measurements of this type on the mutants 22457d-AAP2 which expresses the amino-acid transporter AAP2 from Arabisopsis [sic] thaliana are shown in the following table.
For the investigations, yeast cells of the strain 22457d were transformed with a cDNA sequence which codes for the amino-acid transporter AAP2, and the uptake of radiolabeled proline in the presence of various substances was determined. The various substances tested, their concentration, and the activity of the transporter, shown as percentage activity of the control with which no potential inhibitors were added, are indicated.

The target of test [2] is T2, sucrose transporter P62 (StSUT1) (Solanum tuberosum, UniProt Q43653).
T2 construct: whole-cell [14C]-sucrose uptake; no tag or borders given
T2 sequence (Q43653 1-516): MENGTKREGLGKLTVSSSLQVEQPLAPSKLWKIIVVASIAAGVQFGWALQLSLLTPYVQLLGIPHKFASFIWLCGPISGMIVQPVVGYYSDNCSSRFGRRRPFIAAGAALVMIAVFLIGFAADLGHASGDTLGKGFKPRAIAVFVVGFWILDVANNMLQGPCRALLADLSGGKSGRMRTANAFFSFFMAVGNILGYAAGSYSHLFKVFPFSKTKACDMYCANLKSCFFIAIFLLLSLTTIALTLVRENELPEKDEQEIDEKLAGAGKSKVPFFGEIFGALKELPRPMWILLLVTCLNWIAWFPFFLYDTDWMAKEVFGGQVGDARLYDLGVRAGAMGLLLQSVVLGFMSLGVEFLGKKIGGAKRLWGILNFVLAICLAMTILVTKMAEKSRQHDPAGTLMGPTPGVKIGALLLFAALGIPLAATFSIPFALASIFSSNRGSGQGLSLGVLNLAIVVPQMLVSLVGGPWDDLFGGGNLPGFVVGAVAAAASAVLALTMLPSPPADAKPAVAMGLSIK
The test is described as follows: [14C]-sucrose uptake by yeast strain SUSY-7-P62 (StSUT1) expressing the potato sucrose transporter. It counts as cell-based. Conditions: [14C]-sucrose uptake, pH 3.8, read-out: Activity relative to the control [%]. Summed up:
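SUSY7 yeast expressing potato StSUT1, log-phase cells at 50 g/l wet weight, glucose-energised, pH 3.8. Test substances added 30 s before 0.2 mmol/l [14C]-sucrose solution; uptake sampled 20–240 s by filtration and scintillation, expressed as percent of uninhibited control; untransformed SUSY7 as further control.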

On to `CCOC(=O)OC(=O)OCC` [DEPC, diethyl pyrocarbonate], for which the remaining activity at 1000 µM in test [1] (tested substance 1 mM) came to 3.1 ± 1.2%. Besides, in test [2] (tested substance 0.5 mM), the remaining activity at 500 µM came to 6%.

In the case of `N#CC(C#N)=NNc1cccc(Cl)c1` [CCCP], the remaining activity at 10 µM amounted to 15.6 ± 2.1% in test [1] (tested substance 10 μM) and 9% in test [2] (tested substance 10 μM).

(Values after patent US5750362A, “Methods for identifying substances with a potential herbicidal or growth-regulating action by means of plant transporter proteins, the use of the transporter proteins, and substances with a herbicidal and growth-regulating action” (BASF Aktiengesellschaft, priority 1993, dated 1998).)
